SMILES strings stand for the structures. A value given as a limit tells only on which side of the number the result lay.

The subject of the assay is Huh-7 cells containing the self-replicating, subgenomic HCV replicon. The assay is described as follows: HCV replicon assay (luciferase reporter). The class given is cell-based. The settings on record: Hepatitis C virus, Huh-7, 72 h. The procedure: Huh-7 cells containing the self-replicating, subgenomic HCV replicon with a stable luciferase (LUC) reporter were cultured in Dulbecco's modified Eagle's medium (DMEM) containing 2 mM L-glutamine and supplemented with 10% heat-inactivated fetal bovine serum (FBS), 1% penicillin-streptomyocin, 1% nonessential amino acids, and 0.5 mg/mL G418.
On the first day, 5,000 HCV replicon cells were plated per well in a 96-well plate. On the following day, test compounds were solubilized in 100% DMSO to 100× the desired final testing concentration. Each compound was then serially diluted (1:3) up to 9 different concentrations. Compounds in 100% DMSO are reduced to 10% DMSO by diluting 1:10 in cell culture media. The compounds were diluted to 10% DMSO with cell culture media, which were used to dose the HCV replicon cells in 96-well format. The final DMSO concentration was 1%. The HCV replicon cells were incubated at 37° C. for 72 hours. At 72 hours, cells were processed when the cells are still subconfluent. Compounds that reduce the LUC signal are determined by Bright-Glo Luciferase Assay (Promega, Madison, Wis.). Percent Inhibition was determined for each compound concentration in relation to the control cells (untreated HCV replicon) to calculate the EC50.
(A replicon is a self-replicating genome or part of one, used to study replication in cells.)

`COC(=O)[C@H](C)NP(=S)(OC[C@H]1O[C@@H](n2ccc(=O)[nH]c2=O)[C@](C)(O)[C@@H]1O)Oc1cccc2ccccc12` (some centres unmarked) gave a concentration for a half-maximal effect (EC50) of under 1 µM.

As to `CC(C)OC(=O)[C@H](C)NP(=S)(OC[C@H]1O[C@@H](n2ccc(=O)[nH]c2=O)[C@](C)(F)[C@@H]1O)Oc1ccccc1` (some centres unmarked), the EC50 was in the range of 1 to 10 µM.

With `CC(C)OC(=O)[C@H](C)NP(=S)(OC[C@H]1O[C@@H](n2ccc(=O)[nH]c2=O)[C@](C)(O)[C@@H]1O)Oc1ccccc1` (some centres unmarked), the EC50 was under 1 µM.

Take `C[C@H](NP(=S)(OC[C@H]1O[C@@H](n2ccc(=O)[nH]c2=O)[C@](C)(F)[C@@H]1O)Oc1ccccc1)C(=O)OC1CCCCC1` (some centres unmarked): the EC50 was under 1 µM.

With `C[C@H](NP(=S)(OC[C@H]1O[C@@H](n2ccc(=O)[nH]c2=O)[C@](C)(F)[C@@H]1O)Oc1ccccc1)C(=O)OCC(C)(C)C` (some centres unmarked), the EC50 was under 1 µM.

`C[C@H](NP(=S)(OC[C@H]1O[C@@H](n2ccc(=O)[nH]c2=O)[C@](C)(O)[C@@H]1O)Oc1ccccc1)C(=O)OCC(C)(C)C` (some centres unmarked) displayed an EC50 of under 1 µM.

In the case of `C[C@H](NP(=S)(OC[C@H]1O[C@@H](n2ccc(=O)[nH]c2=O)[C@](C)(O)[C@@H]1O)Oc1ccccc1)C(=O)OC1CCCCC1` (some centres unmarked), the EC50 is under 1 µM.

Take `CC(C)OC(=O)[C@H](C)NP(=S)(OC[C@H]1O[C@@H](n2ccc(=O)[nH]c2=O)[C@](C)(O)[C@@H]1O)Oc1cccc2ccccc12` (some centres unmarked): the EC50 is under 1 µM.

In turn, `C[C@H](NP(=S)(OC[C@H]1O[C@@H](n2ccc(=O)[nH]c2=O)[C@](C)(O)[C@@H]1O)Oc1cccc2ccccc12)C(=O)OC1CCCCC1` (some centres unmarked) yielded an EC50 of under 1 µM.

As to `C[C@H](NP(=S)(OC[C@H]1O[C@@H](n2ccc(=O)[nH]c2=O)[C@](C)(O)[C@@H]1O)Oc1cccc2ccccc12)C(=O)OCC(C)(C)C` (some centres unmarked), the EC50 is under 1 µM.

`CC(C)OC(=O)[C@H](C)N[P@@](=S)(OC[C@H]1O[C@@H](n2ccc(=O)[nH]c2=O)[C@](C)(O)[C@@H]1O)Oc1ccccc1` came in with an EC50 of under 1 µM.

`CC(C)OC(=O)[C@H](C)N[P@](=S)(OC[C@H]1O[C@@H](n2ccc(=O)[nH]c2=O)[C@](C)(O)[C@@H]1O)Oc1ccccc1` gave an EC50 of under 1 µM.

Regarding `[2H]C([2H])(OP(=S)(N[C@@H](C)C(=O)OC(C)C)Oc1ccccc1)[C@H]1O[C@@H](n2ccc(=O)[nH]c2=O)[C@](C)(O)[C@@H]1O` (some centres unmarked), the EC50 was under 1 µM.

The molecule `CC(C)OC(=O)[C@@H](NP(=S)(OC[C@H]1O[C@@H](n2ccc(=O)[nH]c2=O)[C@](C)(O)[C@@H]1O)Oc1ccccc1)C(C)C` (some centres unmarked) gave a half-maximal effective concentration (EC50) of 10 to 100 µM.

Regarding `CC(C)C[C@H](NP(=S)(OC[C@H]1O[C@@H](n2ccc(=O)[nH]c2=O)[C@](C)(O)[C@@H]1O)Oc1ccccc1)C(=O)OC(C)C` (some centres unmarked), the EC50 lay in the range of 1 to 10 µM.

Consider `C[C@H](NP(=S)(OC[C@H]1O[C@@H](n2cnc3c(=O)[nH]c(N)nc32)[C@](C)(O)[C@@H]1O)Oc1ccccc1)C(=O)OCC(C)(C)C` (some centres unmarked), for which the EC50 is under 1 µM.

`C[C@H](NP(=S)(OC[C@H]1O[C@@H](n2cnc3c(=O)[nH]c(N)nc32)[C@](C)(F)[C@@H]1O)Oc1ccccc1)C(=O)OCC(C)(C)C` (some centres unmarked) registered an EC50 of under 1 µM.

In turn, `CC(C)OC(=O)[C@H](C)NP(=S)(OC[C@H]1O[C@@H](n2cnc3c(=O)[nH]c(N)nc32)[C@](C)(O)[C@@H]1O)Oc1ccccc1` (some centres unmarked) had an EC50 of under 1 µM.

In the case of `C[C@H](NP(=S)(OC[C@H]1O[C@@H](n2cnc3c(=O)[nH]c(N)nc32)[C@](C)(O)[C@@H]1O)Oc1ccccc1)C(=O)OC1CCCCC1` (some centres unmarked), the EC50 is under 1 µM.

`COc1nc(N)nc2c1ncn2[C@@H]1O[C@H](COP(=S)(N[C@@H](C)C(=O)OC(C)C)Oc2ccccc2)[C@@H](O)[C@@]1(C)F` (some centres unmarked) gave an EC50 of under 1 µM.

On to `COc1nc(N)nc2c1ncn2[C@@H]1O[C@H](COP(=S)(N[C@@H](C)C(=O)OC(C)C)Oc2ccccc2)[C@@H](O)[C@@]1(C)O` (some centres unmarked), for which the EC50 is under 1 µM.

As for `COc1nc(N)nc2c1ncn2[C@@H]1O[C@H](COP(=S)(N[C@@H](C)C(=O)OCC(C)(C)C)Oc2ccccc2)[C@@H](O)[C@@]1(C)O` (some centres unmarked), the EC50 was under 1 µM.

`COc1nc(N)nc2c1ncn2[C@@H]1O[C@H](COP(=S)(N[C@@H](C)C(=O)OC2CCCCC2)Oc2ccccc2)[C@@H](O)[C@@]1(C)O` (some centres unmarked) returned an EC50 of under 1 µM.

`COc1nc(N)nc2c1ncn2[C@@H]1O[C@H](COP(=S)(N[C@@H](C)C(=O)OCC(C)(C)C)Oc2cccc3ccccc23)[C@@H](O)[C@@]1(C)O` (some centres unmarked): the concentration giving a half-maximal response (EC50) is under 1 µM.

`COc1nc(N)nc2c1ncn2[C@@H]1O[C@H](COP(=S)(N[C@@H](C)C(=O)OC2CCCCC2)Oc2cccc3ccccc23)[C@@H](O)[C@@]1(C)O` (some centres unmarked) yielded an EC50 of under 1 µM.

For the molecule `CC(C)OC(=O)[C@H](C)NP(=S)(OC[C@H]1O[C@@H](n2cnc3c(NC4CC4)nc(N)nc32)[C@](C)(O)[C@@H]1O)Oc1ccccc1` (some centres unmarked), the EC50 is under 1 µM.

Molecule `CC(C)OC(=O)[C@H](C)NP(=S)(OC[C@H]1O[C@@H](n2cnc3c(N)nc(N)nc32)[C@](C)(O)[C@@H]1O)Oc1ccccc1` (some centres unmarked) displayed an EC50 of under 1 µM.

`C=CCNc1nc(N)nc2c1ncn2[C@@H]1O[C@H](COP(=S)(N[C@@H](C)C(=O)OC(C)C)Oc2ccccc2)[C@@H](O)[C@@]1(C)O` (some centres unmarked) had an EC50 of under 1 µM.

On to `CC(C)OC(=O)[C@H](C)NP(=S)(OC[C@H]1O[C@@H](n2cnc3c(Cl)nc(N)nc32)[C@](C)(O)[C@@H]1O)Oc1ccccc1` (some centres unmarked), for which the 50% effective concentration (EC50) is under 1 µM.

The molecule `C[C@H](NP(=S)(OC[C@H]1O[C@@H](n2cnc3c(N)ncnc32)[C@](C)(O)[C@@H]1O)Oc1ccccc1)C(=O)OCC(C)(C)C` (some centres unmarked) registered a concentration giving a half-maximal response (EC50) of under 1 µM.

On to `CC(C)OC(=O)[C@H](C)NP(=S)(OC[C@H]1O[C@@H](n2cnc3c(N)ncnc32)[C@](C)(O)[C@@H]1O)Oc1cccc2ccccc12` (some centres unmarked), for which the EC50 is under 1 µM.

In the case of `CC(C)OC(=O)[C@H](C)NP(=S)(OC[C@@]1(N=[N+]=[N-])O[C@@H](n2ccc(=O)[nH]c2=O)[C@H](O)[C@@H]1O)Oc1ccccc1` (some centres unmarked), the EC50 was 10 to 100 µM.

As to `C[C@H](NP(=S)(OC[C@@]1(N=[N+]=[N-])O[C@@H](n2ccc(=O)[nH]c2=O)[C@H](O)[C@@H]1O)Oc1ccccc1)C(=O)OCC(C)(C)C` (some centres unmarked), the EC50 fell in the range of 10 to 100 µM.

The molecule `CC(C)OC(=O)[C@H](C)NP(=S)(OC[C@H]1O[C@@H](n2ccc(=O)[nH]c2=O)[C@](C)(O)[C@@H]1O)Oc1ccc(F)cc1` (some centres unmarked) gave a half-maximal effective concentration (EC50) of under 1 µM.

`CC(C)OC(=O)[C@H](C)NP(=S)(OC[C@H]1O[C@@H](n2ccc(=O)[nH]c2=O)[C@](C)(O)[C@@H]1O)Oc1ccc(Cl)cc1` (some centres unmarked) returned an EC50 of under 1 µM.

Take `CC(C)OC(=O)[C@H](C)NP(=S)(OC[C@H]1O[C@@H](n2ccc(=O)[nH]c2=O)[C@](C)(O)[C@@H]1O)Oc1ccccc1Cl` (some centres unmarked): the EC50 was under 1 µM.

Turning to `CC(C)OC(=O)[C@H](C)NP(=S)(OC[C@H]1O[C@@H](n2ccc(=O)[nH]c2=O)[C@](C)(O)[C@@H]1O)Oc1ccc(F)c(Cl)c1` (some centres unmarked), the 50% effective concentration (EC50) was under 1 µM.

Molecule `Cc1ccc(OP(=S)(N[C@@H](C)C(=O)OC(C)C)OC[C@H]2O[C@@H](n3ccc(=O)[nH]c3=O)[C@](C)(O)[C@@H]2O)cc1` (some centres unmarked) returned an EC50 of under 1 µM.

`Cc1ccccc1OP(=S)(N[C@@H](C)C(=O)OC(C)C)OC[C@H]1O[C@@H](n2ccc(=O)[nH]c2=O)[C@](C)(O)[C@@H]1O` (some centres unmarked) returned a concentration giving a half-maximal response (EC50) of under 1 µM.

The molecule `COc1ccc(OP(=S)(N[C@@H](C)C(=O)OC(C)C)OC[C@H]2O[C@@H](n3ccc(=O)[nH]c3=O)[C@](C)(O)[C@@H]2O)cc1` (some centres unmarked) registered an EC50 of under 1 µM.

Take `CC(C)OC(=O)[C@H](C)NP(=S)(OC[C@H]1O[C@@H](n2ccc(=O)[nH]c2=O)[C@](C)(O)[C@@H]1O)Oc1cccc2ncccc12` (some centres unmarked): the EC50 is under 1 µM.

The molecule `CC(C)OC(=O)[C@H](C)NP(=S)(OC[C@H]1O[C@@H](n2ccc(=O)[nH]c2=O)[C@](C)(O)[C@@H]1O)Oc1cccnc1` (some centres unmarked) had an EC50 of under 1 µM.

In turn, `CSCC[C@H](NP(=S)(OC[C@H]1O[C@@H](n2ccc(=O)[nH]c2=O)[C@](C)(O)[C@@H]1O)Oc1ccccc1)C(=O)OC(C)C` (some centres unmarked) displayed an EC50 of 1 to 10 µM.

For `CC(C)OC(=O)CNP(=S)(OC[C@H]1O[C@@H](n2ccc(=O)[nH]c2=O)[C@](C)(O)[C@@H]1O)Oc1ccccc1` (some centres unmarked), the EC50 lay in the range of 1 to 10 µM.

In the case of `CC[C@H](NP(=S)(OC[C@H]1O[C@@H](n2ccc(=O)[nH]c2=O)[C@](C)(O)[C@@H]1O)Oc1ccccc1)C(=O)OC(C)C` (some centres unmarked), the EC50 is under 1 µM.

Take `COc1nc(N)nc2c1ncn2[C@@H]1O[C@H](COP(=S)(NC(C)C(=O)OC(C)C)Oc2ccccc2)C(O)C1(C)O` (some centres unmarked): the EC50 was under 1 µM.

For `COc1nc(N)nc2c1ncn2[C@@H]1O[C@H](COP(=S)(NC(C)C(=O)OC(C)C)Oc2ccccc2)C(O)C1(C)F` (some centres unmarked), the EC50 was under 1 µM.

As for `CC(C)OC(=O)C(C)NP(=S)(OC[C@@]1(N=[N+]=[N-])O[C@@H](n2ccc(=O)[nH]c2=O)[C@H](O)[C@@H]1O)Oc1ccccc1` (some centres unmarked), the EC50 was 10 to 100 µM.

For the molecule `CCC(=O)O[C@@H]1[C@@H](COP(=S)(N[C@@H](C)C(=O)OC(C)C)Oc2ccccc2)O[C@@H](n2ccc(=O)[nH]c2=O)[C@]1(C)OC(=O)CC` (some centres unmarked), the EC50 was under 1 µM.

On to `CCC(=O)O[C@@H]1[C@@H](COP(=S)(N[C@@H](C)C(=O)OC(C)C)Oc2ccccc2)O[C@@H](n2ccc(=O)[nH]c2=O)[C@]1(C)O` (some centres unmarked), for which the EC50 was under 1 µM.

As for `CC(C)OC(=O)[C@H](C)NP(=S)(OC[C@H]1O[C@@H](n2ccc(=O)[nH]c2=O)[C@](C)(OC(=O)C(C)C)[C@@H]1OC(=O)C(C)C)Oc1ccccc1` (some centres unmarked), the EC50 was under 1 µM.

As to `[2H]C([2H])(OP(=S)(N[C@@H](C)C(=O)OC(C)C)Oc1ccccc1)[C@H]1O[C@@H](n2ccc(=O)[nH]c2=O)[C@](C)(O)[C@@H]1OC(C)=O` (some centres unmarked), the EC50 is under 1 µM.

Take `CC(C)OC(=O)[C@H](C)NP(=S)(OC[C@H]1O[C@@H](n2ccc(=O)[nH]c2=O)[C@](C)(O)[C@@H]1OC(=O)C(C)C)Oc1ccccc1` (some centres unmarked): the EC50 is under 1 µM.

As a reminder, the EC50 is the midpoint of the concentration-response curve. Higher therefore signals lower potency in that assay.

The values are drawn from US9278990B2, “Substituted nucleotide analogs” (priority 2010, dated 2016).
